In ChEMBL document CHEMBL6120978, “Anticancer activity of salinomycin quaternary phosphonium salts” (Eur J Med Chem, 2025):
The source made the active and inactive calls. No cut-off for these calls is given here.

Assays:
SW480 = experiment: Cytotoxicity against human SW480 cells incubated for 72 hrs by MTT assay; assay type: functional, cell-based; details: SW480, 72 h
SW-620 = experiment: Cytotoxicity against human SW620 cells incubated for 72 hrs by MTT assay; assay type: functional, cell-based; details: SW-620, 72 h
PC-3 = experiment: Cytotoxicity against human PC-3 cells incubated for 72 hrs by MTT assay; assay type: functional, cell-based; details: PC-3, 72 h
MDA-MB-231 = experiment: Cytotoxicity against human MDA-MB-231 cells incubated for 72 hrs by MTT assay; assay type: functional, cell-based; details: MDA-MB-231, 72 h
A549 [1] = experiment: Cytotoxicity against human A549 cells incubated for 72 hrs by MTT assay; assay type: functional, cell-based; details: A549, 72 h
[2] = Cytotoxicity against human HaCaT cells incubated for 72 hrs by MTT assay; assay type: toxicity, cell-based
[3] = Cytotoxicity against chinese hamster V79 cells incubated for 72 hrs by MTT assay; assay type: toxicity, cell-based, Cricetulus griseus
[4] = Selectivity index, ratio of IC50 for cytotoxicity against human HaCaT cells to IC50 for cytotoxicity against human SW480 cells; assay type: toxicity, cell-based; details: HaCaT cells versus SW480 cells, read-out: Ratio IC50
[5] = Selectivity index, ratio of IC50 for cytotoxicity against human HaCaT cells to IC50 for cytotoxicity against human SW620 cells; assay type: toxicity, cell-based; details: HaCaT cells versus SW620 cells, read-out: Ratio IC50
[6] = Selectivity index, ratio of IC50 for cytotoxicity against human HaCaT cells to IC50 for cytotoxicity against human PC-3 cells; assay type: toxicity, cell-based; details: HaCaT cells versus PC-3 cells, read-out: Ratio IC50
[7] = Selectivity index, ratio of IC50 for cytotoxicity against human HaCaT cells to IC50 for cytotoxicity against human MDA-MB-231 cells; assay type: toxicity, cell-based; details: HaCaT cells versus MDA-MB-231 cells, read-out: Ratio IC50
[8] = Selectivity index, ratio of IC50 for cytotoxicity against human HaCaT cells to IC50 for cytotoxicity against human A549 cells; assay type: toxicity, cell-based; details: HaCaT cells versus A549 cells, read-out: Ratio IC50
[9] = Selectivity index, ratio of IC50 for cytotoxicity against chinese hamster V79 cells to IC50 for cytotoxicity against human SW480 cells; assay type: toxicity, cell-based; details: V79 cells versus SW480 cells, read-out: Ratio IC50
[10] = Selectivity index, ratio of IC50 for cytotoxicity against chinese hamster V79 cells to IC50 for cytotoxicity against human SW620 cells; assay type: toxicity, cell-based; details: V79 cells versus SW620 cells, read-out: Ratio IC50
[11] = Selectivity index, ratio of IC50 for cytotoxicity against chinese hamster V79 cells to IC50 for cytotoxicity against human PC-3 cells; assay type: toxicity, cell-based; details: V79 cells versus PC-3 cells, read-out: Ratio IC50
[12] = Selectivity index, ratio of IC50 for cytotoxicity against chinese hamster V79 cells to IC50 for cytotoxicity against human MDA-MB-231 cells; assay type: toxicity, cell-based; details: V79 cells versus MDA-MB-231 cells, read-out: Ratio IC50
[13] = Selectivity index, ratio of IC50 for cytotoxicity against chinese hamster V79 cells to IC50 for cytotoxicity against human A549 cells; assay type: toxicity, cell-based; details: V79 cells versus A549 cells, read-out: Ratio IC50
Staphylococcus aureus [14] = experiment: Antimicrobial activity against Staphylococcus aureus NCTC 4163 incubated for 18 hrs by twofold microdilution method; assay type: functional
Staphylococcus aureus [15] = experiment: Antimicrobial activity against Staphylococcus aureus ATCC 25923 incubated for 18 hrs by twofold microdilution method; assay type: functional
Staphylococcus aureus [16] = experiment: Antimicrobial activity against Staphylococcus aureus ATCC 6538 incubated for 18 hrs by twofold microdilution method; assay type: functional
Staphylococcus aureus [17] = experiment: Antimicrobial activity against Staphylococcus aureus ATCC 29213 incubated for 18 hrs by twofold microdilution method; assay type: functional
[18] = system: Staphylococcus epidermidis; experiment: Antimicrobial activity against Staphylococcus epidermidis ATCC 12228 incubated for 18 hrs by twofold microdilution method; assay type: functional
[19] = system: Staphylococcus epidermidis; experiment: Antimicrobial activity against Staphylococcus epidermidis ATCC 35984 incubated for 18 hrs by twofold microdilution method; assay type: functional
Escherichia coli = experiment: Antimicrobial activity against Escherichia coli ATCC 25922 incubated for 18 hrs by twofold microdilution method; assay type: functional
Pseudomonas aeruginosa = experiment: Antimicrobial activity against Pseudomonas aeruginosa ATCC 15442 incubated for 18 hrs by twofold microdilution method; assay type: functional
Lipid bilayer [20] = experiment: Induction of ionic transport in azolectin bilayer membrane assessed as specific channel-like structure formation in presence of HEPES buffer by electrophysiology technique
Lipid bilayer [21] = experiment: Induction of ionic transport in azolectin bilayer membrane assessed as irregular disturbance in membrane permeability in presence of HEPES buffer by electrophysiology technique
Lipid bilayer [22] = experiment: Induction of ionic transport in azolectin bilayer membrane assessed as membrane rupture in presence of HEPES buffer by electrophysiology technique
A549 [23] = experiment: Induction of mitochondrial respiration in human A549 cells assessed as fold increase in oxygen consumption rate at 1 uM by Oxygraph-2K system; assay type: functional
A549 [24] = experiment: Induction of mitochondrial respiration in human A549 cells assessed as decrease in oxygen consumption rate at 3 uM by Oxygraph-2K system; assay type: functional, cell-based
Lipid bilayer [25] = experiment: Induction of current generation in azolectin bilayer membrane in presence of HEPES buffer by electrophysiology technique

MIC (Staphylococcus aureus [14]) [µg/mL]	MIC (Staphylococcus aureus [15]) [µg/mL]	MIC (Staphylococcus aureus [16]) [µg/mL]	Structure (SMILES)	IC50 (SW480) [nM]	IC50 (SW-620) [nM]	IC50 (PC-3) [nM]	IC50 (MDA-MB-231) [nM]	IC50 (A549 [1]) [nM]	IC50 at 72 h [2] [nM]	IC50 at 72 h [3] [nM]	selectivity ratio [4]	selectivity ratio [5]	selectivity ratio [6]	selectivity ratio [7]	selectivity ratio [8]	selectivity ratio [9]	selectivity ratio [10]	selectivity ratio [11]	selectivity ratio [12]	selectivity ratio [13]	further results
2	4	2	CC[C@@H](C(=O)[C@@H](C)[C@@H](O)[C@H](C)[C@@H]1O[C@@H]([C@@H](CC)C(=O)OCCCC[P+](c2ccccc2)(c2ccccc2)c2ccc(N(C)C)cc2)CC[C@@H]1C)[C@H]1O[C@]2(C=C[C@@H](O)[C@]3(CC[C@@](C)([C@H]4CC[C@](O)(CC)[C@H](C)O4)O3)O2)[C@H](C)C[C@@H]1C.[Br-]	570	110	2520	780	750	1280	370	2.2	11.6	0.5	1.6	1.7	0.6	3.4	0.1	0.5	0.5	MIC (Staphylococcus aureus [17]): 2 µg/mL; MIC [18]: 4 µg/mL; MIC [19]: 4 µg/mL; MIC (Escherichia coli): > 256 µg/mL; MIC (Pseudomonas aeruginosa): > 256 µg/mL; Activity (Lipid bilayer [20]): inactive; Activity (Lipid bilayer [21]): inactive; Activity (Lipid bilayer [22]): inactive; fold change (FC) (A549 [23]): 2.5; Activity (A549 [24]): inactive; Activity (Lipid bilayer [25]): Dose-dependent-effect
2	4	2	CC[C@@H](C(=O)[C@@H](C)[C@@H](O)[C@H](C)[C@@H]1O[C@@H]([C@@H](CC)C(=O)OCCCC[P+](c2ccc(C)cc2)(c2ccc(C)cc2)c2ccc(C)cc2)CC[C@@H]1C)[C@H]1O[C@]2(C=C[C@@H](O)[C@]3(CC[C@@](C)([C@H]4CC[C@](O)(CC)[C@H](C)O4)O3)O2)[C@H](C)C[C@@H]1C.[Br-]	440	500	2210	830	810	1020	3770	2.3	2	0.5	1.2	1.3	8.6	7.5	1.7	4.5	4.7	MIC (Staphylococcus aureus [17]): 4 µg/mL; MIC [18]: 4 µg/mL; MIC [19]: 4 µg/mL; MIC (Escherichia coli): > 256 µg/mL; MIC (Pseudomonas aeruginosa): > 256 µg/mL; Activity (Lipid bilayer [20]): inactive; Activity (Lipid bilayer [21]): inactive; Activity (Lipid bilayer [22]): inactive; fold change (FC) (A549 [23]): 2.5; Activity (A549 [24]): inactive; Activity (Lipid bilayer [25]): Dose-dependent-effect
2	2	2	CC[C@@H](C(=O)[C@@H](C)[C@@H](O)[C@H](C)[C@@H]1O[C@@H]([C@@H](CC)C(=O)OCCCC[P+](c2ccccc2OC)(c2ccccc2OC)c2ccccc2OC)CC[C@@H]1C)[C@H]1O[C@]2(C=C[C@@H](O)[C@]3(CC[C@@](C)([C@H]4CC[C@](O)(CC)[C@H](C)O4)O3)O2)[C@H](C)C[C@@H]1C.[Br-]	560	1250	880	740	700	940	640	1.7	0.8	1.1	1.3	1.3	1.1	0.5	0.7	0.9	0.9	MIC (Staphylococcus aureus [17]): 2 µg/mL; MIC [18]: 2 µg/mL; MIC [19]: 2 µg/mL; MIC (Escherichia coli): 256 µg/mL; MIC (Pseudomonas aeruginosa): 256 µg/mL
